From US8563578B2, “Antitumor properties of NO modified protease inhibitors” (Onconox APS, priority 2008, dated 2013)

Experiments:
C6 cells [1] = experiment: Cell cycle / apoptosis by propidium iodide flow cytometry, C6; assay type: cell-based, rat; conditions: 18.8 μM, 24 h
Method: (§1) Apoptotic cell death was assessed by flow cytometry analysis of DNA fragmentation in cells stained with DNA-binding dye propidium iodide (PI). Following a 24 h incubation in 6-well plate, cells (2×10^5/well) were detached with trypsin, washed and fixed in 70% ethanol at 4° C. for 30 min. After washing in PBS, cells were resuspended in PBS containing 1 mg/ml RNase and propidium iodide (40 μg/ml) and kept at 37° C. in the dark for 30 min. Red fluorescence was analyzed with FACSCalibur flow cytometer (BD, Heidelberg, Germany) and distribution of cells among cell cycle phases was determined with Cell Quest Pro software (BD). Hypodiploid cells in sub-G0/G1 compartment were considered apoptotic.
(§2) FIG. 4. […] Results are calculated as indicated in materials and methods and presented as mean±SD from representative of three independent experiment (*p <0.05). […] After 24 h of cultivation without or with drugs, cells were stained with AO orange (B) or PI (C) and analyzed by flow cytometry. The data are presented as mean±SD from three independent experiments. *p<0.05, refers to untreated cultures. […] Cells were incubated with 18.8 μM of Sag or Saq-NO2 for 24 h. After that, the drugs were either removed or not from the cells and incubated for additional 24 h. Cell viability was determined by CV test after 24 and 48 h of incubation (right panels). The data are presented as mean±SD from three independent experiments. *p<0.05, refers to untreated cultures.

C6 cells [2] = experiment: Differentiation markers by cell-based ELISA, C6; set-up: species or system rat; conditions: 18.8 μM, 24 h
Text: A slightly modified method for cell-based ELISA (cELISA) by Versteeg (Versteed et al., 2000) was used to measure the expression of galactocerebroside, glial fibrilar acidic protein (GFAP), myelin basic protein (MBP), cyclin D3, p53 and p-AKT. Briefly, at the end of cultivation period cells were fixed in 4% paraformaldehyde, endogenous peroxydase was quenched with 1% H2O2 in PBS containing 0.1% Triton X-100 (PBST), and unspecific binding of antibodies blocked with PBST solution containing 10% FCS. Primary mouse monoclonal antibodies specific for rat/mouse p-Akt (1:200; Santa Cruz Biotechnology, Santa Cruz, Calif.), GFAP (1:200, BioYeda, Israel.), galactocerebroside (1:100; Boehringer Mannheim, Mannheim, Germany), MBP (1:100, Boehringer Mannheim, Mannheim, Germany), cyclin D3 (1:750, Santa Cruz Biotechnology, Santa Cruz, Calif.) and p53 (1:250, Santa Cruz Biotechnology, Santa Cruz, Calif.) were applied in PBST supplemented with 2% bovine serum albumin (PBSTB), followed by secondary peroxidase-conjugated goat anti-mouse IgG (1:2500 in PBSTB; GE Healthcare UK) for anti-GFAP and galactocerebroside or anti-rabbit IgG (1:2500, Healthcare UK) for anti-p-Akt, anti-cyclin D3 and anti-p53. All incubations were performed at 37° C. for 1 h. The absorbance at 450 nm was measured in an automated microplate reader 15 min after incubation with peroxydase substrate TMB and subsequently to addition of 0.1 M HCl. To facilitate comparison between treatments, the obtained absorbances were corrected for the cell number that was determined by crystal violet staining, as described in the original protocol. The results are presented as relative expression in comparison with the control value.
(§3) FIG. 5. […] Cell morphology was assessed by light microscopy (A). Markers of cell differentiation of C6 and B16 cells, galactocerebroside, GFAP and MBP were determined by cELISA and melanin and tyrosinase activity were determined as described in material and methods (B). Cyclin D3 and p53 expression were evaluated by cELISA (C, upper panels), immunocytochemistry (C, middle panel) and Western blot (C, lower panel). The results were presented as mean±SD from three independent experiments. *p<0.05, refers to untreated cultures.

B16 cells [3] = experiment: LDH release assay, B16; assay type: cell-based; conditions: for LDH release (cytotoxicity, necrosis): 24 h, different doses
Method: Reduction of 3-4,5-dimethylthiazol-2-yl)-2,5-diphenyltetrazolium bromide (MTT) to formazan depends on mitochondrial activity of cultured cells, absorption of crystal violet dye correlates with the number of adherent, live cells, while the release of cytosolic lactate dehydrogenase (LDH) indicates the disruption of membrane integrity caracteristic for necrotic cells. […] Mitohondrial-dependent production of formazan and intensity of absorbed crystal violet by adherent cells were assessed by an automated microplate reader at 570 nm, while the pyruvate-mediated conversion of 2,4-dinitrophenylhydrazine into visible hydrazone precipitate in LDH assay was measured at 492 nm. The % of cytotoxicity as indicated by LDH release was calculated as: (E−C)/(T−C)×100, where E is the experimental absorbance of cell cultures, C is the control absorbance of cell-free culture medium, and T is the absorbance corresponding to the maximal (100%) LDH release of Triton-lysed cells.
as §2

C6 cells [4] = experiment: Autophagy detection by acridin orange staining, C6; assay type: cell-based, rat; conditions: 18.8 μM, 24 h
Method: Vital dye acridin orange (AO) was used for detection of autophagy. The intensity of red fluorescence correlates with acidity and volume of present autophagic organelles (Kanzawa et al. 2004). Assay was performed as follows: the cells were cultured in 6-well plate (2×10^5/well) 24 h in the presence of the drug, detached with trypsin and stained with 1 μg/ml AO in RPMI without phenol red for 15 min at RT. After the end of incubation period cells were washed and resuspended in PBS. Green and red fluorescence emission was measured with a FACSCalibur and analyzed using CellQuest software.
as §2

tyrosinase of B16 cells = experiment: Tyrosinase activity assay, B16; assay type: cell-based, mouse; conditions: 18.8 μM, 24 h
Method: Tyrosinase activity was determined by measuring the rate of oxidation of L-DOPA^34. Briefly, sub-confluent cultures in 6-well plate were lysed in 100 μl phosphate buffer pH 6.8-1% Triton X-100 and than centrifuged at 10000 rpm for 5 min. 40 μl of each extract was mixed with 100 μl of L-DOPA substrate solution (2 mg/ml). Enzymatic reaction was carried out at 37° C. and the absorbance at 570 nm was read every 10 min for at least 1 h. The final activity was corrected by the total amount of protein estimated by Bradford assay. For melanin determination cells were incubated in 6 well plate for 24 h, trypsinized, counted and than lysed in 100 μl of 1M NaOH. 400 μl of distilled water was added and samples were incubated at 60° C. for 1 h. Thereafter, absorbance of dissolved dye was measured at 492 nm.
as §3

B16 cells [5] = experiment: Cell cycle / apoptosis by propidium iodide flow cytometry, B16; assay type: cell-based, mouse; conditions: 18.8 μM, 24 h
Method: as §1, §2

Row | SMILES | cell cycle distribution (C6 cells [1]) | expression of GFAP (C6 cells [2]) | expression of galactocerebroside (C6 cells [2]) | LDH release (cytotoxicity, necrosis) (B16 cells [3]) | amount of acidic vesicles in the cytoplasm (autophagy) (C6 cells [4]) | tyrosinase activity (tyrosinase of B16 cells) | cell cycle distribution (B16 cells [5]) | percentage of cells in subG compartment (apoptosis) (C6 cells [1]) | LDH release (cytotoxicity, necrosis) (B16 cells [3]; listed as Saq-NO) | cytotoxicity at 18.8 µM (B16 cells [3]; Mus musculus, 18.8 μM, 18 h of exposure, control 2.3%) | apoptosis (B16 cells [5])
1 | CC(C)(C)NC(=O)[C@@H]1C[C@@H]2CCCC[C@@H]2CN1C[C@@H](O)[C@H](Cc1ccccc1)NC(=O)[C@H](CC(N)=O)NC(=O)c1ccc2ccccc2n1 [Saq, Saquinavir, reference compound] | did not show considerably different distribution from control | decreased or unchanged | strongly up regulated | induced LDH release in both cell lines in a dose-dependent way | absence of autophagia | increased | did not show considerably different distribution from control | – | – | – | –
2 | CC(C)(C)NC(=O)[C@@H]1C[C@@H]2CCCC[C@@H]2CN1C[C@@H](O[N+](=O)[O-])[C@H](Cc1ccccc1)NC(=O)[C@H](CC(N)=O)NC(=O)c1ccc2ccccc2n1 [Saq-NO2, nitric ester of Saquinavir] | particularly marked arrest in G0/G1 | decreased or unchanged | strongly up regulated | induced significant cytoxicity even at lowest dose tested | absence of autophagia | slight but significant decrease | accumulation of cells in G2/M phase | slightly increased | dose-dependent LDH release was detected upon all tested doses | 6.2% | statistically significant apoptosis
